Drawing on US6844435B2, “Heterocyclic compounds useful as inhibitors of tyrosine kinases” (Boehringer Ingelheim Pharmaceuticals, Inc., priority 2000, dated 2005), this text covers melting point for 44 compounds.

One may read the melting point as the temperature of the solid-liquid transition.

For the compound `Cn1c(Nc2c(Cl)cccc2Cl)nc2ccc3nc(C4=CC5C=CC4N5C(=O)OCc4ccccc4)[nH]c(=O)c3c21` (centres unmarked), the melting point was > 275 °C (dec.).

`Cn1c(Nc2c(Cl)cccc2Cl)nc2ccc3nc(C4=CC5C=CC4N5)[nH]c(=O)c3c21` (centres unmarked) registered a melting point of more than 300 °C. As for `C/C(=C\c1cc([N+](=O)[O-])cc([N+](=O)[O-])c1)c1nc2ccc3nc(Nc4c(Cl)cccc4Cl)n(C)c3c2c(=O)[nH]1`, the figure is 315 to 317 °C (dec.). As for `CCn1c(Nc2c(Cl)cccc2Cl)nc2ccc3nc[nH]c(=O)c3c21` [Example 5, 2-(2,6-Dichlorophenylamino)-1-ethyl-1,8-dihydro-9H-imidazo[4,5-f]quinazoline-9-one], the figure is more than 300 °C; as for `Cn1c(Nc2c(Cl)cccc2Cl)nc2ccc3nc(-c4ccccc4)[nH]c(=O)c3c21` [Example 7, 2-(2,6-Dichlorophenylamino)-1-methyl-7-phenyl-1,8-dihydro-9H-imidazo[4,5-f]quinazoline-9-one], more than 300 °C; as for `Cn1c(Nc2c(Cl)cccc2Cl)nc2ccc3nc(-c4ccoc4)[nH]c(=O)c3c21` [Example 8, 2-(2,6-Dichlorophenylamino)-1-methyl-7-furan-3-yl-1,8-dihydro-9H-imidazo[4,5-f]quinazoline-9-one], more than 300 °C. The same measure for `Cn1c(Nc2c(Cl)cccc2Cl)nc2ccc3nc(-c4cccc([N+](=O)[O-])c4)[nH]c(=O)c3c21` [Example 18]: more than 300 °C; for `Cn1c(Nc2c(Cl)cccc2Cl)nc2ccc3nc(-c4cccc(N)c4)[nH]c(=O)c3c21` [Example 19]: 200 °C (dec.); for `CCNC(=O)Nc1cccc(-c2nc3ccc4nc(Nc5c(Cl)cccc5Cl)n(C)c4c3c(=O)[nH]2)c1` [Example 20]: 251 °C (dec.).

For `C=Cc1nc2ccc3nc(Nc4c(Cl)cccc4Cl)n(C)c3c2c(=O)[nH]1` [Example 21], the melting point was 278 to 284 °C (dec.). As for `Cn1c(Nc2c(Cl)cccc2Cl)nc2ccc3nc(-c4cccs4)[nH]c(=O)c3c21` [Example 22], the melting point is more than 300 °C. With `Cn1c(Nc2c(Cl)cccc2Cl)nc2ccc3nc(-c4scc(S(C)(=O)=O)c4Cl)[nH]c(=O)c3c21` [Example 23], the melting point worked out at 280 °C.

The compound `Cn1c(Nc2c(Cl)cccc2Cl)nc2ccc3nc(-c4csc(-c5cccc([N+](=O)[O-])c5)n4)[nH]c(=O)c3c21` [Example 24] registered a melting point of more than 300 °C. The same measure for `Cn1c(Nc2c(Cl)cccc2Cl)nc2ccc3nc(-c4ncc[nH]4)[nH]c(=O)c3c21` [Example 25]: more than 300 °C. As for `Cn1c(Nc2c(Cl)cccc2Cl)nc2ccc3nc(-c4cnc(-c5ccccc5)o4)[nH]c(=O)c3c21` [Example 26], the figure is more than 290 °C. As for `Cn1c(Nc2c(Cl)cccc2Cl)nc2ccc3nc(C(N)=O)[nH]c(=O)c3c21` [Example 27], the figure is more than 300 °C; as for `CC(C)=Cc1nc2ccc3nc(Nc4c(Cl)cccc4Cl)n(C)c3c2c(=O)[nH]1` [Example 28], more than 300 °C; as for `Cn1c(Nc2c(Cl)cccc2Cl)nc2ccc3nc(-c4ccccn4)[nH]c(=O)c3c21` [Example 29], more than 300 °C.

As to `Cn1c(Nc2c(Cl)cccc2Cl)nc2ccc3nc(-c4cccnc4)[nH]c(=O)c3c21` [Example 30], the melting point was more than 300 °C. Consider `Cn1c(Nc2c(Cl)cccc2Cl)nc2ccc3nc(Nc4ccccc4)[nH]c(=O)c3c21` [Example 31], for which the melting point lay in the range of 185 to 192 °C.

As to `Cn1c(Nc2c(Cl)cccc2Cl)nc2ccc3nc(-c4nc(-c5ccc(OC(F)(F)F)cc5)no4)[nH]c(=O)c3c21` [Example 32], the melting point is more than 300 °C.

Regarding `C=C(C)c1nc2ccc3nc(Nc4c(Cl)cccc4Cl)n(C)c3c2c(=O)[nH]1` [Example 33], the melting point was more than 300 °C. As for `Cn1c(Nc2c(Cl)cccc2Cl)nc2ccc3nc(Cc4ccccc4)[nH]c(=O)c3c21` [Example 34], the figure is > 250 °C (dec.). The same measure for `Cn1c(Nc2c(Cl)cccc2Cl)nc2ccc3nc(C4=CCCC4)[nH]c(=O)c3c21` [Example 35]: 295 °C (dec.). In the case of `Cn1c(Nc2c(Cl)cccc2Cl)nc2ccc3nc(-c4csc(-c5cccc(N)c5)n4)[nH]c(=O)c3c21` [Example 36], the melting point is 240 °C (dec.).

With `CCOC(=O)c1nc2ccc3nc(Nc4c(Cl)cccc4Cl)n(C)c3c2c(=O)[nH]1` [Example 37], the melting point was in the range of 275 to 277 °C. As for `Cc1ccccc1-c1nc2ccc3nc(Nc4c(Cl)cccc4Cl)n(C)c3c2c(=O)[nH]1` [Example 38], the figure is more than 300 °C; as for `Cn1c(Nc2c(Cl)cccc2Cl)nc2ccc3nc(-c4cc5ccccc5o4)[nH]c(=O)c3c21` [Example 39], more than 300 °C. The same measure for `Cn1c(Nc2c(Cl)cccc2Cl)nc2ccc3nc(CC4=CCCC4)[nH]c(=O)c3c21` [Example 40]: 258 °C (dec.); for `Cn1c(Nc2c(Cl)cccc2Cl)nc2ccc3nc(C(=O)NCCO)[nH]c(=O)c3c21` [Example 41]: 265 to 268 °C; for `Cn1c(Nc2c(Cl)cccc2Cl)nc2ccc3nc(C(=O)O)[nH]c(=O)c3c21` [Example 42]: more than 300 °C. The same measure for `Cn1c(Nc2c(Cl)cccc2Cl)nc2ccc3nc(-c4nc5ccccc5[nH]4)[nH]c(=O)c3c21` [Example 43]: more than 300 °C; for `C/C=C(\C)c1nc2ccc3nc(Nc4c(Cl)cccc4Cl)n(C)c3c2c(=O)[nH]1` [Example 45]: 278 °C (dec.). `Cc1ncc(-c2nc3ccc4nc(Nc5c(Cl)cccc5Cl)n(C)c4c3c(=O)[nH]2)o1` [Example 46] yielded a melting point of more than 300 °C.

Compound `Cn1c(Nc2c(Cl)cccc2Cl)nc2ccc3nc(C(=O)c4c[nH]c5ccccc45)[nH]c(=O)c3c21` [Example 47] had a melting point of more than 300 °C.

`Cn1c(Nc2c(Cl)cccc2Cl)nc2ccc3nc(C4=CC(N5CCNCC5)CC4)[nH]c(=O)c3c21` (centres unmarked) [Example 48] had a melting point of 173 to 174 °C. As for `CC(C)c1nc2ccc3nc(Nc4c(Cl)cccc4Cl)n(C)c3c2c(=O)[nH]1` [Example 49], the figure is 279 °C (dec.); as for `Cn1c(Nc2c(Cl)cccc2Cl)nc2ccc3nc(C4CCCC4)[nH]c(=O)c3c21` [Example 50], 283 to 284 °C. The same measure for `Cn1c(Nc2c(Cl)cccc2Cl)nc2ccc3nc(C(=O)N4CCCC4)[nH]c(=O)c3c21` [Example 52]: 295 °C (dec.); for `CCc1nc2ccc3nc(Nc4c(Cl)cccc4Cl)n(C)c3c2c(=O)[nH]1` [Example 53]: more than 300 °C. The same measure for `CN1CCC=C(c2nc3ccc4nc(Nc5c(Cl)cccc5Cl)n(C)c4c3c(=O)[nH]2)C1` [Example 54]: 255 °C; for `Cn1c(Nc2c(Cl)cccc2Cl)nc2ccc3nc(-c4ccc(-c5ccccc5[N+](=O)[O-])o4)[nH]c(=O)c3c21` [Example 55]: 289 to 292 °C; for `Cn1c(Nc2c(Cl)cccc2Cl)nc2ccc3nc(-c4ccc(Br)o4)[nH]c(=O)c3c21` [Example 57]: 280 to 283 °C.

Consider `Cc1ccoc1-c1nc2ccc3nc(Nc4c(Cl)cccc4Cl)n(C)c3c2c(=O)[nH]1` [Example 58], for which the melting point is 304 to 310 °C (dec.).
